# In ChEMBL document CHEMBL4673209, “Discovery of a novel potent GPR40 full agonist” (Bioorg Med Chem Lett, 2018):
# The source made the active and inactive calls. No cut-off for these calls is given here.
# How the values were obtained:
# [1] = Protein binding in rat plasma; format: ADME, cell-free; details: read-out: PPB (converted)
# [2] = system: Rattus norvegicus; assay: Anti-glycemic activity in fasted Sprague-Dawley ZDF rat assessed as increase in insulin secretion by measuring insulin level in plasma administered 30 mins prior to glucose challenge measured after 140 mins by OGTT; format: functional, organism-based; details: dose 1-10 mg/kg, time 170.0 min
# [3] = system: Rattus norvegicus; assay: Anti-glycemic activity in fasted Sprague-Dawley ZDF rat assessed as reduction in post-prandial hyperglycemia administered 30 mins prior to glucose challenge and measured for 120 mins by OGTT; format: functional; details: 2.5 h, time 150 min, read-out: MED
# [4] = target: Cytochrome P450 3A4 (Homo sapiens, UniProt P08684); assay: Inhibition of CYP3A4 (unknown origin) using midazolam as substrate; format: ADME
# [5] = target: T1, Free fatty acid receptor 4 (Homo sapiens) (UniProt Q5NUL3); assay: Agonist activity at GPR120 (unknown origin)
# T1 sequence (whole entry): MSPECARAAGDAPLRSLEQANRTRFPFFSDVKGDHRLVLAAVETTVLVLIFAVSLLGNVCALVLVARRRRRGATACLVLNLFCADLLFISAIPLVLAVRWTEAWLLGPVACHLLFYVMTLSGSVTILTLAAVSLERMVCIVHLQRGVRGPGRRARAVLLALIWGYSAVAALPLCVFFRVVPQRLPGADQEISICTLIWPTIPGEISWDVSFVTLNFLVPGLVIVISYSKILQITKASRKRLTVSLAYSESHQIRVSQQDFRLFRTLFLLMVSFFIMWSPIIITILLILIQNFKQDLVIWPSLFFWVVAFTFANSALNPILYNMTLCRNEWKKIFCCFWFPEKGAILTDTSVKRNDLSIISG
# [6] = target: T2, Free fatty acid receptor 2 (Homo sapiens) (UniProt O15552); assay: Agonist activity at GPR43 (unknown origin)
# T2 sequence (whole entry): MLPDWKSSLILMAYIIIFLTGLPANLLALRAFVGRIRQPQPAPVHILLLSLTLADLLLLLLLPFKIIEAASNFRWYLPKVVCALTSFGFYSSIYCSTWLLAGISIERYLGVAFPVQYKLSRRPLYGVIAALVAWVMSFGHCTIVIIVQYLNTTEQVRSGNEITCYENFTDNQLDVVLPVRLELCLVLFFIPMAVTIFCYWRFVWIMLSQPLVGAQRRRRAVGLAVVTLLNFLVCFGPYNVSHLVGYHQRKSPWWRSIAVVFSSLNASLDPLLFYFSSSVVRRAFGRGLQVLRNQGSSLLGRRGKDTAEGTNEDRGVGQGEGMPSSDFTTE
# [7] = target: T3, Free fatty acid receptor 3 (Homo sapiens) (UniProt O14843); assay: Agonist activity at GPR41 (unknown origin)
# T3 sequence (whole entry): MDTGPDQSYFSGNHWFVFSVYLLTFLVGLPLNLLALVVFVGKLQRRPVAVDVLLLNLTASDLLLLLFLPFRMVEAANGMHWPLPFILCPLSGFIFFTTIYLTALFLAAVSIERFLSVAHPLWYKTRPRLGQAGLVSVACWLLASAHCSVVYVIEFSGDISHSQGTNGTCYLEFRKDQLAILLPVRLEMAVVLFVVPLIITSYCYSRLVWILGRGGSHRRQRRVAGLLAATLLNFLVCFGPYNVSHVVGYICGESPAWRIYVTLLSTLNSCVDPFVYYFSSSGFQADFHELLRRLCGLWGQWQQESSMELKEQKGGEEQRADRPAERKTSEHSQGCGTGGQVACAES
# [8] = system: Mus musculus; assay: Induction of GLP-1 secretion in GPR40 knock-out mouse at 100 mg/kg; format: functional, organism-based
# [9] = system: Mus musculus; assay: In vivo agonist activity at GPR40 in C57 mouse assessed as induction of GLP1 secretion at 100 mg/kg; format: functional, organism-based
# [10] = system: Rattus norvegicus; assay: Anti-glycemic activity in fasted Sprague-Dawley ZDF rat assessed as reduction in post-prandial hyperglycemia by measuring AUC(0 to 2 hrs) for blood glucose at 10 mg/kg administered for 1 day and measured on day 1 by OGTT; format: functional
# [11] = system: Rattus norvegicus; assay: Anti-glycemic activity in fasted Sprague-Dawley ZDF rat assessed as reduction in post-prandial hyperglycemia by measuring AUC(0 to 2 hrs) for blood glucose at 3 mg/kg administered daily for 8 days and measured on day 8 by OGTT; format: functional; details: time 8 day
# [12] = system: Rattus norvegicus; assay: Anti-glycemic activity in fasted Sprague-Dawley ZDF rat assessed as increase in insulin secretion by measuring insulin level in plasma at 3 mg/kg administered 30 mins prior to glucose challenge measured after 140 mins by OGTT; format: functional; details: time 170 min, 2.833 h
# [13] = system: Rattus norvegicus; assay: Anti-glycemic activity in fasted Sprague-Dawley ZDF rat assessed as increase in insulin secretion by measuring insulin level in plasma at 10 mg/kg administered 30 mins prior to glucose challenge measured after 140 mins by OGTT; format: functional; details: time 170 min, 2.833 h
# [14] = species on record: Mus musculus; assay: Anti-glycemic activity in C57 mouse assessed as reduction in blood glucose excursion measured for 120 mins by IPGTT; format: functional, organism-based
# [15] = species on record: Mus musculus; assay: Anti-glycemic activity in GPR40 knockout mouse assessed as reduction in blood glucose excursion measured for 120 mins by IPGTT; format: functional, organism-based
# [16] = target: Free fatty acid receptor 1 (Rattus norvegicus) (UniProt Q8K3T4); assay: Agonist activity at GPR40 in rat INS1 (832/13) cells assessed as induction of glucose-stimulated insulin secretion in presence of 10 mM glucose; format: cell-based; details: INS-1 832/13, filed as agonist
# [17] = target: Free fatty acid receptor 1 (Rattus norvegicus) (UniProt Q8K3T4); assay: Agonist activity at GPR40 receptor in rat INS1(832/13) cells assessed as induction of IP1 accumulation at 10 uM relative to AM1638; format: functional, cell-based; details: INS-1 832/13, filed as agonist
# [18] = target: T4, Free fatty acid receptor 1 (Rattus norvegicus, UniProt Q8K3T4); assay: Agonist activity at rat GPR40 receptor expressed in CHOK1 cells assessed as induction of IP1 accumulation; format: functional, cell-based, CHO-K1
# [19] = target: Free fatty acid receptor 1 (Homo sapiens, UniProt O14842); assay: Agonist activity at human GPR40 receptor expressed in CHOK1 cells assessed as induction of IP1 accumulation at 10 uM; format: functional, cell-based; details: CHO-K1, filed as agonist
# [20] = Apparent permeability from basolateral to apical side in dog MDCK-MDR1 cells; format: ADME, cell-based, Canis lupus familiaris
# [21] = Volume of distribution at steady state in rat; format: ADME; details: in vivo, read-out: Vdss
# [22] = Volume of distribution at steady state in dog; format: ADME, Canis lupus familiaris; details: in vivo, read-out: Vdss
# [23] = Cmax in rat; format: ADME; details: in vivo
# [24] = Cmax in cynomolgus monkey; format: ADME, Macaca fascicularis; details: in vivo
# [25] = Clearance in cynomolgus monkey; format: ADME, Macaca fascicularis; details: in vivo
# [26] = Clearance in dog; format: ADME, Canis lupus familiaris; details: in vivo
# [27] = Intrinsic clearance in human assessed as half-life at 1 uM; format: ADME
# [28] = Intrinsic clearance in rat assessed as half-life at 1 uM; format: ADME
# [29] = Protein binding in cynomolgus monkey plasma; format: ADME, cell-free, Macaca fascicularis; details: read-out: PPB (converted)
# [30] = target: T4, Free fatty acid receptor 1; assay: Agonist activity at rat GPR40 transfected in HEK293 cells assessed as increase in intracellular calcium level incubated for 1 hr by Fluo-8 dye based fluorescence analysis; format: functional, cell-based
# Free fatty acid receptor 1 (Rattus norvegicus), sequence (Q8K3T4 whole entry): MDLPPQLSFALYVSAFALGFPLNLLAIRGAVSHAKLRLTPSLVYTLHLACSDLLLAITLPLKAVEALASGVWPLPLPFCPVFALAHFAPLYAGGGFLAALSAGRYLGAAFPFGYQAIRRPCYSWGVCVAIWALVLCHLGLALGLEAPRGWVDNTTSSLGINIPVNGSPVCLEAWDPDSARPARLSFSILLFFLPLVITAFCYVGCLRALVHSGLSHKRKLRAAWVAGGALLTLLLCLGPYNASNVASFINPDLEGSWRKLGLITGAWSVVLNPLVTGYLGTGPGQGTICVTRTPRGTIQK
# T4 sequence (Q8K3T4 whole entry): as above
# Free fatty acid receptor 1 (Homo sapiens, UniProt O14842), sequence (O14842 whole entry): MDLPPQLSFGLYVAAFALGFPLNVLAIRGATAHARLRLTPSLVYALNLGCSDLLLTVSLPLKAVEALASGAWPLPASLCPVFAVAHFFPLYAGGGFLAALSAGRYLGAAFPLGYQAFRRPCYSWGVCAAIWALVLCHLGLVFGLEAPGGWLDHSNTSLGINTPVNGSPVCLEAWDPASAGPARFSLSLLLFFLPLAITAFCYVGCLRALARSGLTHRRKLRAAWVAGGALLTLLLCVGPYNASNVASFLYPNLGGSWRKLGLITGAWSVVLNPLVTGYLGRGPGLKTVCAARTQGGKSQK
# Cytochrome P450 3A4, sequence (P08684 whole entry): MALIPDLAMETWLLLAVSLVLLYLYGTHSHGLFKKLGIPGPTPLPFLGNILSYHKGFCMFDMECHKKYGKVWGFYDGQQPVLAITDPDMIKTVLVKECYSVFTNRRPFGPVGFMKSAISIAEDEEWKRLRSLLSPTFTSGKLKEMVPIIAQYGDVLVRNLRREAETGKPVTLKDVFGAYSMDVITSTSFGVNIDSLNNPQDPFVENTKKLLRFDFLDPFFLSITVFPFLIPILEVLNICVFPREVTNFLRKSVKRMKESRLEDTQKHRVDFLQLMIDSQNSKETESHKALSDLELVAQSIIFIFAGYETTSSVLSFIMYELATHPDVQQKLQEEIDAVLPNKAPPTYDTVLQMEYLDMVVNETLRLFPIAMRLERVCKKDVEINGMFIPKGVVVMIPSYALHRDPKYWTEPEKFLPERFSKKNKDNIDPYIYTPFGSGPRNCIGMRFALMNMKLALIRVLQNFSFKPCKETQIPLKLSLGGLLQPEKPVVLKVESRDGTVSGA
smiles,measurement,setting,value
COc1cc(-c2ncc(COc3cccc([C@@H](CC(=O)O)C4CC4)c3)nc2CC(C)C)c(F)cn1,fraction unbound,[1],0.0009
same,Activity,[2],Dose-dependent effect
same,minimal effective dose,[3],3 mg/kg
same,IC50,[4],8000 nM
same,Activity,[5],inactive
same,Activity,[6],inactive
same,Activity,[7],inactive
same,Activity,[8],inactive
same,Activity,[9],Active
same,Activity,[10],37373 ng/mL.hr
same,Activity,[11],16769 ng/mL.hr
same,Activity,[12],5275 ng/mL
same,Activity,[13],16925 ng/mL
same,Activity,[14],Active
same,Activity,[15],inactive
same,Activity,[16],Active
same,Activity,[17],104%
same,EC50,[18],547 nM
same,Activity,[19],1040 nM
same,Papp B→A,[20],82 ×10⁻⁶ cm/s
same,Vd,[21],0.384 L/kg
same,Vd,[22],1.62 L/kg
same,Cmax,[23],9720 ng/mL
same,Cmax,[24],8570 ng/mL
same,clearance,[25],2.19 mL/min/kg
same,clearance,[26],8.36 mL/min/kg
same,half-life at 1 µM,[27],1.72 h
same,half-life at 1 µM,[28],0.8 h
same,fraction unbound,[29],0.0009
same,EC50,[30],17 nM
